Data taken from patent US6764829B2, “Nucleoside hydrolase and nucleoside phosphorylase detection kits, dipsticks and substrates” (Albert Einstein College of Medicine of Yeshiva University, priority 1996, dated 2004).
Where two headings read alike, the source gives them in different places.

Tests used:
[1] = target: T1, AMP nucleosidase (Escherichia coli, UniProt P0AE12); conditions: purine substrate; cited from earlier work
[2] = test system: GI-nucleoside hydrolase; conditions: purine substrate; cited from earlier work
[3] = target: T2, Purine nucleoside phosphorylase (Bos taurus, UniProt P55859); assay: Kinetic parameters (phosphorolysis) with nitrophenylriboside and purine substrate (Table 1); format: biochemical, bovine; design: The E. coli and bovine spleen enzymes tested; from tissue; host or cells: bovine spleen
T2 sequence (P55859 1-289): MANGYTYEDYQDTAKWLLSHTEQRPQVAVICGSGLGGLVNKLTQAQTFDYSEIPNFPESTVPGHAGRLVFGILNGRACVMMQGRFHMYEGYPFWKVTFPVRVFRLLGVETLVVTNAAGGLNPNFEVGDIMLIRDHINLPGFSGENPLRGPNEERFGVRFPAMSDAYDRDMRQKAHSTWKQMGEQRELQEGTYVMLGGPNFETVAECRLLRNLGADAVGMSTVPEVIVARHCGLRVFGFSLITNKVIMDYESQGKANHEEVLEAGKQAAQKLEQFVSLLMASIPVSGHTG
Description: (§1) In this Example kinetic parameters for different enzymes were compared using nitrophenylriboside or a purine substrate. […] The E. coli and bovine spleen enzymes tested were ineffective in hydrolysing the substrate. The striking ability of one of the protozoan parasite enzymes to hydrolyse the substrate provides the basis for an assay for the protozoan parasites (see Example 22).

[4] = test system: Giardia intestinalis (Portland 1 strain); assay: Hydrolysis of substrates by Giardia intestinalis supernatants; format: biochemical; conditions: 0.24 mM substrate, 50 mM HEPES pH 8
Experimental: Giardia intestinalis (Portland 1 strain) was grown for 2 days in TYI-33 medium supplemented with 5 mM arginine, harvested and washed. A suspension containing 2.91×10^8 cells of Giardia intestinalis in 1 mL of aqueous HEPES buffer (40 mM. pH 7) was mixed with 1 mL of aqueous HEPES buffer (40 mM, pH 7) containing 0.1 mM protease inhibitor E-64 and sonicated (Branson sonicator, duty cycle 40, output 2.5), for 2-3 min in ice. The suspension was then centrifuged in a Beckman microfuge for 10 mins at 4° C., and the supernatant decanted.
A second suspension of 2.91×10^8 cells of Giardia intestinalis in 1 mL of aqueous HEPES buffer (40 mM, pH 7) was mixed with 1 mL of 0.5% aqueous Triton X-100, left at 4° C. overnight, and the supernatant was decanted.
Aliquots (between 2 and 100 μL) of each of these supernatants were made up to a volume of 1 mL of water containing 50 mM HEPES buffer at pH 8, 0.24 mM 4-nitrophenyl β-D-ribofuranoside or 4-pyridyl β-D-ribofuranoside. The release of the aglycon was monitored by absorption spectrometry at 400 nm or 253 nm, respectively.
Protein was determined by Lowry method (ie Folin reaction).

[5] = target: T3, IU-nucleoside hydrolase (Crithidia fasciculata, UniProt Q27546); assay: Comparison of β-D-ribofuranoside substrates with IU-nucleoside hydrolase (Table 3); format: biochemical
T3 sequence (Q27546 1-315): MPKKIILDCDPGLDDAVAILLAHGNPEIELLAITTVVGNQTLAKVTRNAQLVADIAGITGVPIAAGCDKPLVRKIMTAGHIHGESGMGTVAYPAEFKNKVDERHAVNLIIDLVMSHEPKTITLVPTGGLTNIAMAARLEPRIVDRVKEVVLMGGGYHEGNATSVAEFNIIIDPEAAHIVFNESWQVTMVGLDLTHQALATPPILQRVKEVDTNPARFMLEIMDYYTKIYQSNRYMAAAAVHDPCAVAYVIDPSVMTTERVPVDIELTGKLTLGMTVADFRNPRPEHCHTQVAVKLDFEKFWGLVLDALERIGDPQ
Experimental: (§2) The enzymes used were highly purified samples from Crithidia fasciculata (IU-nucleoside hydrolase) and Trypanosoma brucei brucei (IAG-nucleoside hydrolase), available as stock solutions of approximately 20 mg protein/mL.
(§3) Each reaction was conducted in a quartz cuvette with a 1 cm path length, placed in the observation chamber of a UV spectrophotometer, and in a total reaction volume of 600 μL. The temperature was adjusted by use of a circulating water bath, set so that the cuvette temperature equilibrated to 30° C. in about 5 minutes.
(§4) The β-D-ribofuranoside substrates were dissolved in aqueous buffer: 50 mM CHES for reactions at pH 10, 50 mM HEPES for reactions at pH 8. […] For the remaining reactions catalysed by IAG hydrolase, a single substrate concentration of between 100 and 300 μM was used.
(§5) The absorbance of each reaction mixture was monitored at or near the absorption maximum for the phenolic aglycon (as shown in Table 3). Monitoring began 5-10 minutes before the enzyme was added to determine if the substrate was stable under the reaction conditions.
(§6) Data were fitted to the Michaelis-Menton equation using kaleidagraph, and the resulting kinetic parameters along with other relevant data are summarized in Table 3.

[6] = test system: T. vaginalis; assay: Hydrolysis of substrates by T. vaginalis extract; format: biochemical; conditions: Triton X-100 extract; determined as in Example 24
Experimental: T. vaginalis was grown for 2 days in TYM medium, harvested, and washed. […] The ability of the extract to hydrolyse substrates was determined as in Example 24. For 4-nitrophenyl β-D-ribofuranoside, the activity was 165 nmoles.min^−1 per 10^8 cells, corresponding to an activity for the enzyme of 9 nmoles.min^−1.(mg protein)^−1. For 4-pyridyl β-D-ribofuranoside, the activity was 74 nmoles.min^−1 per […] corresponding to an activity for the enzyme of 4 nmoles.min^−1.(mg protein)^−1.

[7] = target: T1, AMP nucleosidase; assay: Kinetic parameters with nitrophenylriboside 5-phosphate and purine substrate (Table 1); format: biochemical, E coli; conditions: summary of Table 1
Description: as §1

[8] = target: T4, IAG-nucleoside hydrolase (Trypanosoma brucei, UniProt Q57ZL6); assay: Kinetic parameters with nitrophenylriboside and purine substrate (Table 1); format: biochemical
T4 sequence (Q57ZL6 1-327): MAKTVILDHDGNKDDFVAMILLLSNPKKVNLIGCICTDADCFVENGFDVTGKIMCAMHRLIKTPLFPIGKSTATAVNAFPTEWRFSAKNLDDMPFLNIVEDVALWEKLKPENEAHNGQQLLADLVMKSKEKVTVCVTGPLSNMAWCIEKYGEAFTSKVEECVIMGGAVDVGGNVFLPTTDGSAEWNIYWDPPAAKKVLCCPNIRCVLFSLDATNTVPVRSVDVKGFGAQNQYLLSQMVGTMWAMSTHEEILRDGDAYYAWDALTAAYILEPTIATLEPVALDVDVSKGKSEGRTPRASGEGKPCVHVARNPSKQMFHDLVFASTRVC
Description: as §1

[9] = target: T3, IU-nucleoside hydrolase; assay: as above; format: biochemical
Description: as §1

[10] = test system: GI-nucleoside hydrolase; assay: as above; format: biochemical, Crithidia fasciculata
Description: as §1

[11] = target: T4, IAG-nucleoside hydrolase; assay: Comparison of β-D-ribofuranoside substrates with IAG-nucleoside hydrolase (Table 3); format: biochemical; conditions: for IAG NH rate: at 200 μM substrate
Experimental: as §2, §3, §4, §5, §6

[12] = test system: blood from mice infected with Trypanosoma cruzi; assay: Rate of hydrolysis of nitrophenyl riboside with control or infected mouse blood; format: biochemical; conditions: for rate of hydrolysis: 0.24 mM substrate, 50 mM HEPES pH 8.0, 30° C., 400 nm
Experimental: The utility of nitrophenylriboside as a substrate for detecting protozoan infections using the presence of nucleoside hydrolases was tested using blood from mice infected with Trypanosoma cruzi, the causitive agent of Chagas disease (Table 2). […] The values obtained from the assay from the infected mice were strikingly elevated above those of the uninfected controls.

[13] = target: T4, IAG-nucleoside hydrolase; conditions: purine substrate; cited from earlier work
[14] = target: T2, Purine nucleoside phosphorylase; design: bovine spleen enzymes tested; from tissue; host or cells: bovine spleen; conditions: purine substrate; cited from earlier work
[15] = target: T3, IU-nucleoside hydrolase; conditions: purine substrate; cited from earlier work
[16] = Stability of substrate under the reaction conditions before enzyme was added; format: physicochemical; conditions: pH 10, 30° C., monitored 5-10 minutes before the enzyme was added
Experimental: as §5

[17] = kcat/Km for nitrophenylriboside to that for inosine
[18] = nitrophenylriboside as substrate, pH 8.0 in 50 mM HEPES, 30° C.
[19] = listed as 2-(5-nitropyridyl) riboside

T1 sequence (P0AE12 whole entry): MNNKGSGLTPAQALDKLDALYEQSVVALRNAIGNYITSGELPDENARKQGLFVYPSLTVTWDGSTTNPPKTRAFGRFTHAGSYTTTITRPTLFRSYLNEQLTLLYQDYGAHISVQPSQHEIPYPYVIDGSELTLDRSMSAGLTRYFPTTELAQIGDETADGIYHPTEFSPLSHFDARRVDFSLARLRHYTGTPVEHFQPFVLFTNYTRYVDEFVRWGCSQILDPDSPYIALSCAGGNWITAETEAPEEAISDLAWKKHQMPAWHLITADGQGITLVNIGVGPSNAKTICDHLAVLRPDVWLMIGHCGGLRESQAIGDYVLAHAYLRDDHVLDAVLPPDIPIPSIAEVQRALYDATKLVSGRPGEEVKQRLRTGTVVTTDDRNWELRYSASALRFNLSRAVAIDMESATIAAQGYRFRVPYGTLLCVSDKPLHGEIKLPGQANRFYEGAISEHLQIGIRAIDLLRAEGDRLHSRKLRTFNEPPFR

## Nc1ncnc2c1ncn2[C@@H]1O[C@H](COP(=O)(O)O)[C@@H](O)[C@H]1O [AMP]
[1]
  Km: 150 µM
  kcat: 27 s⁻¹

## Nc1nc2c(ncn2[C@@H]2O[C@H](CO)[C@@H](O)[C@H]2O)c(=O)[nH]1 [guanosine]
[2]
  Km: 77 µM
  kcat: 231 s⁻¹

## O=[N+]([O-])c1ccc(O[C@@H]2O[C@H](CO)[C@@H](O)[C@H]2O)cc1 [Example 1, p-nitrophenyl β-D-ribofuranoside]
[3]; [17]
  kcat/Km ratio: 1 × 10^−6
[3]; summary of Table 1
  substrate quality in words: ineffective
[4]
  activity per cells: 470 nmoles.min^−1 per 10^8 cells
[4]; protein by Lowry method
  activity for the enzyme: 70 nmoles.min^−1.(mg protein)^−1
[5]
  substrate quality in words: good substrates
[5]; listed as p-nitrophenylriboside
  substrate quality in words: particularly good substrate
[6]
  activity for the enzyme: 9 nmoles.min^−1.(mg protein)^−1
  activity per cells: 165 nmoles.min^−1 per 10^8 cells
[7]
  substrate quality in words: ineffective
[8]; [17]
  kcat/Km ratio: 8 × 10^−4
[8]; summary of Table 1
  substrate quality in words: relatively poor
[9]; [17]
  kcat/Km ratio: 54
[9]; summary of Table 1
  substrate quality in words: good substrate
[10]; kcat/Km for nitrophenylriboside to that for guanosine
  kcat/Km ratio: 4 × 10^−5
[10]; [18]
  Km: 468 µM
  kcat: 0.07 s⁻¹
[11]; pH 10.0
  IAG NH rate: 0.05 min⁻¹
[12]; blood lysate prepared from one microliter of infected blood
  detection of nucleoside hydrolase in words: readily detects the presence of the nucleoside hydrolase
[12]; mouse blood infected, T cruzi var Brazil
  rate of hydrolysis: 4.6 ± 0.5 (3) pmol/min/mg
[12]; mouse blood infected, T cruzi var Tulahuen
  rate of hydrolysis: 3.9 ± 0.5 (4) pmol/min/mg
[12]; uninfected control mouse blood
  rate of hydrolysis: 0.7 ± 0.8 (11) pmol/min/mg

## OC[C@H]1O[C@@H](n2cnc3c(O)ncnc32)[C@H](O)[C@@H]1O [inosine]
[13]
  Km: 18 µM
  kcat: 34 s⁻¹
[14]
  Km: 19 µM
  kcat: 12 s⁻¹
[15]
  kcat: 28 s⁻¹

## O=[N+]([O-])c1ccc(O[C@@H]2O[C@H](CO)[C@@H](O)[C@H]2O)nc1 [Example 13, 2-(5-nitropyridyl) β-D-ribofuranoside]
[5]
  substrate quality in words: good substrates
[5]; At pH 10, 30° C.
  IU NH kcat: 100 s⁻¹
[5]; At pH 10, 30° C., read-out: IU NH Km
  Km: 122 µM
[5]; [19]
  substrate quality in words: lower activity
[11]
  substrate quality in words: good substrates
[11]; pH 8.0
  IAG NH rate: >100 min⁻¹
[11]; pH 10.0
  IAG NH rate: >100 min⁻¹
[11]; [19]
  substrate quality in words: substantially greater activity
[16]
  hydrolysis in the absence of enzyme: hydrolysis observed in the absence of enzyme
